Results published in patent publication US20240325398A1, “COMBINATION THERAPIES” (Infinity Pharmaceuticals, Inc., priority 2014, published 2024).

How the values were obtained:
Test in all cases: Combination study, ATPLite 72 h, dose matrix (Synergy Score, CI50)
TMD8 = conditions: for CI50 growth inhibition / CI50 inhibition / Synergy Score growth inhibition / Synergy Score inhibition: TMD8
Farage = conditions: combination with Compound 1
OCI-Ly3 = system: OCI-Ly3
HBL-1 = system: HBL-1
U-2932 = system: U-2932
SU-DHL-4-epst = conditions: combination with Compound 1, 72 h
RPMI-8226 = conditions: combination with Compound 1
Method: (§1) Cells are thawed from a liquid nitrogen preserved state. Once cells have been expanded and divide at their expected doubling times, screening begins. Cells are seeded in growth media in either black 1536-well or 384-well tissue culture treated plates. Cells are then equilibrated in assay plates via centrifugation and placed in incubators attached to the Dosing Modules at 37° C. for 24 hours before treatment. […] These Tzero (To) plates are read using ultra-sensitive luminescence on Envision plate readers (Perkin Elmer). Treated assay plates are incubated with compound for 72 hours. After 72 hours, plates are developed for endpoint analysis using ATPLite. All data points are collected via automated processes, quality controlled and analyzed using Zalicus software.
(§2) where T is treated cell count and V is untreated (vehicle) cell count (at 72 hours). I ranges from 0% (when T=V) to 100% (when T=0). […] The measure of effect in the experiment can be the inhibition of cellular response relative to the untreated level (vehicle alone). […] The inhibition ranges from 0% at the untreated level to 100% when T=0. Inhibition levels are negative for agents that actually increase levels. Other effect measures, such as an activity ratio r=T/V may be more appropriate for some assays. When activity ratios (e.g, fold increase over stimulated control) are being used, the effect can be measured using an induction 1=ln(T/V). With this definition, all effect expressions are the same as for inhibition.
(§3) Growth Inhibition (GI) is used as a measure of cell viability. […] A GI reading of 100% represents complete growth inhibition—T72 compound-treated and T0 vehicle signals are matched. […] A GI reading of 200% represents complete death of all cells in the culture well. Compounds reaching an activity plateau of GI 200% are considered cytotoxic. GI is calculated by applying the following test and equation:
(§4) Combination analysis data were collected in a 6×6 dose matrix. Synergy is calculated by comparing a combination's response to those of its single compound, against the drug-with-itself dose-additive reference model. Deviations from dose additivity may be assessed visually on an isobologram or numerically with a Combination Index (CI). […] Additive effect is CI=1.0. […] Antagonistic effect is CI>1.0.
(§5) To measure combination effects in excess of Loewe additivity, a scalar measure to characterize the strength of synergistic interaction termed the Synergy Score is devised. The Synergy Score is calculated as:
(§6) The fractional inhibition for each component agent and combination point in the matrix is calculated relative to the median of all vehicle-treated control wells. The Synergy Score equation integrates the experimentally-observed activity volume at each point in the matrix in excess of a model surface numerically derived from the activity of the component agents using the Loewe model for additivity. Additional terms in the Synergy Score equation (above) are used to normalize for various dilution factors used for individual agents and to allow for comparison of synergy scores across an entire experiment. The inclusion of positive inhibition gating or an Idata multiplier removes noise near the zero effect level, and biases results for synergistic interactions at that occur at high activity levels.
(§7) Loewe Volume (Loewe Vol) is used to assess the overall magnitude of the combination interaction in excess of the Loewe additivity model. Loewe Volume is particularly useful when distinguishing synergistic increases in a phenotypic activity (positive Loewe Volume) versus synergistic antagonisms (negative Loewe Volume). […] This model defines additivity as a non-synergistic combination interaction where the combination dose matrix surface should be indistinguishable from either drug crossed with itself.

NCI-H929 = conditions: combination with Compound 1
Method: as §1, §2, §3, §4, §5, §6, §7

HH = assay type: cell-based; conditions: combination with Compound 1
Method: The method is described as follows.
Additive effect is CI=1.0. […] Antagonistic effect is CI>1.0.
The Synergy Score is calculated as: […]

Jeko-1 = conditions: combination with Compound 1
Mino = conditions: combination with Compound 1
SU-DHL-10-epst = conditions: combination with Compound 1, 72 h
OCI-Ly7 = conditions: combination with Compound 1, 72 h
GRANTA-519 = conditions: combination with Compound 1
Method: as §1, §2, §3, §4, §5, §6, §7

KARPAS-299 = conditions: combination with Compound 1
OMP-2 = conditions: combination with Compound 1; OPM-2
Method: as §1, §2, §3, §4, §5, §6, §7

RL = conditions: combination with Compound 1, 72 h
DOHH-2 = conditions: combination with Compound 1, 72 h
WSU-NHL = conditions: combination with Compound 1, 72 h
Method: as §1, §2, §3, §4, §5, §6, §7

KARPAS-422 = conditions: combination with Compound 1, 72 h
[1] = combination with CAL-101, Example 2
[2] = combination with Cmpd 1, Example 2
[3] = combination with CAL-101, OCT-Ly3, Example 2
[4] = combination with Cmpd 1, OCT-Ly3, Example 2
[5] = combination with Compound 1, 72 h
[6] = combination with Compound 1, OCI-Ly3, 72 h

## COc1ccc(-c2ccc3c(N4CCOC[C@@H]4C)nc(N4CCOC[C@@H]4C)nc3n2)cc1CO [AZD8055, (5-{2,4-bis[(3S)-3-methylmorpholin-4-yl]pyrido[2,3-d]pyrimidin-7-yl}-2-methoxyphenyl)methanol]
TMD8; combination with Compound 1, TMD8 DLBCL cell line, FIG. 1-3
  effect of the combination (isobologram): synergistic effect
Farage; Farage DLBCL cell line, FIG. 4-5
  effect of the combination (isobologram): synergistic effect

## C=CC(=O)N1CCC[C@@H](n2nc(-c3ccc(Oc4ccccc4)cc3)c3c(N)ncnc32)C1 [PCI-32765]
TMD8; [1]
  CI50 growth inhibition: S (S=0.01 to <0.5)
  CI50 inhibition: S (S=0.01 to <0.5)
  Synergy Score growth inhibition: A3 (A3=>3)
  Synergy Score inhibition: A3 (A3=>3)
TMD8; [2]
  CI50 growth inhibition: U (U=0.7 to <1)
  CI50 inhibition: T (T=0.5 to <0.7)
  Synergy Score growth inhibition: A3 (A3=>3)
  Synergy Score inhibition: A3 (A3=>3)
OCI-Ly3; [3]
  Synergy Score growth inhibition: A1 (A1=0.0001 to <1)
  Synergy Score inhibition: A1 (A1=0.0001 to <1)
OCI-Ly3; [4]
  CI50 growth inhibition: S (S=0.01 to <0.5)
  Synergy Score growth inhibition: A1 (A1=0.0001 to <1)
  Synergy Score inhibition: A1 (A1=0.0001 to <1)
HBL-1; [1]
  CI50 growth inhibition: S (S=0.01 to <0.5)
  Synergy Score growth inhibition: A2 (A2=1 to <3)
  Synergy Score inhibition: A1 (A1=0.0001 to <1)
HBL-1; [2]
  CI50 growth inhibition: S (S=0.01 to <0.5)
  Synergy Score growth inhibition: A2 (A2=1 to <3)
  Synergy Score inhibition: A1 (A1=0.0001 to <1)
U-2932; [1]
  CI50 growth inhibition: T (T=0.5 to <0.7)
  CI50 inhibition: U (U=0.7 to <1)
  Synergy Score growth inhibition: A2 (A2=1 to <3)
  Synergy Score inhibition: A2 (A2=1 to <3)
U-2932; [2]
  CI50 growth inhibition: U (U=0.7 to <1)
  CI50 inhibition: U (U=0.7 to <1)
  Synergy Score growth inhibition: A2 (A2=1 to <3)
  Synergy Score inhibition: A2 (A2=1 to <3)

## CC(=O)c1c(C)c2cnc(Nc3ccc(N4CCNCC4)cn3)nc2n(C2CCCC2)c1=O [PD-0332991]
TMD8; [1]
  CI50 growth inhibition: S (S=0.01 to <0.5)
  CI50 inhibition: S (S=0.01 to <0.5)
  Synergy Score growth inhibition: A3 (A3=>3)
  Synergy Score inhibition: A2 (A2=1 to <3)
TMD8; [2]
  CI50 growth inhibition: S (S=0.01 to <0.5)
  CI50 inhibition: S (S=0.01 to <0.5)
  Synergy Score growth inhibition: A3 (A3=>3)
  Synergy Score inhibition: A2 (A2=1 to <3)
OCI-Ly3; [3]
  CI50 growth inhibition: S (S=0.01 to <0.5)
  CI50 inhibition: S (S=0.01 to <0.5)
  Synergy Score growth inhibition: A3 (A3=>3)
  Synergy Score inhibition: A2 (A2=1 to <3)
OCI-Ly3; [4]
  CI50 growth inhibition: T (T=0.5 to <0.7)
  CI50 inhibition: U (U=0.7 to <1)
  Synergy Score growth inhibition: A2 (A2=1 to <3)
  Synergy Score inhibition: A1 (A1=0.0001 to <1)
HBL-1; [1]
  Synergy Score growth inhibition: A1 (A1=0.0001 to <1)
  Synergy Score inhibition: A1 (A1=0.0001 to <1)
HBL-1; [2]
  Synergy Score growth inhibition: A1 (A1=0.0001 to <1)
  Synergy Score inhibition: A1 (A1=0.0001 to <1)
U-2932; [1]
  Synergy Score growth inhibition: A1 (A1=0.0001 to <1)
  Synergy Score inhibition: A1 (A1=0.0001 to <1)
U-2932; [2]
  Synergy Score growth inhibition: A1 (A1=0.0001 to <1)
  Synergy Score inhibition: A1 (A1=0.0001 to <1)

## O=C(Nc1ccc2[nH]nc(-c3ccncc3)c2c1)[C@@H]1CCN(CC(=O)N2CCN(c3ccc(-c4ncccn4)cc3)CC2)C1 [SCH772984, (R)-1-(2-oxo-2-(4-(4-(pyrimidin-2-yl)phenyl)piperazin-1-yl)ethyl)-N-(3-(pyridin-4-yl)-1H-indazol-5-yl)pyrrolidine-3-carboxamide]
SU-DHL-4-epst
  CI50 growth inhibition: W (W=≥1)
  Synergy Score growth inhibition: A1 (A1=0.0001 to <1)
  Synergy Score inhibition: A1 (A1=0.0001 to <1)
RPMI-8226
  Synergy Score growth inhibition: A1 (A1=0.0001 to <1)
  Synergy Score inhibition: A1 (A1=0.0001 to <1)
TMD8; [5]
  CI50 growth inhibition: T (T=0.5 to <0.7)
  CI50 inhibition: U (U=0.7 to <1)
  Synergy Score growth inhibition: A1 (A1=0.0001 to <1)
  Synergy Score inhibition: A1 (A1=0.0001 to <1)
NCI-H929
  CI50 growth inhibition: W (W=≥1)
  CI50 inhibition: W (W=≥1)
  Synergy Score growth inhibition: A1 (A1=0.0001 to <1)
  Synergy Score inhibition: A1 (A1=0.0001 to <1)
OCI-Ly3; [6]
  CI50 growth inhibition: W (W=≥1)
  Synergy Score growth inhibition: A1 (A1=0.0001 to <1)
  Synergy Score inhibition: A1 (A1=0.0001 to <1)
HH
  CI50 growth inhibition: T (T=0.5 to <0.7)
  CI50 inhibition: S (S=0.01 to <0.5)
  Synergy Score growth inhibition: A1 (A1=0.0001 to <1)
  Synergy Score inhibition: A1 (A1=0.0001 to <1)
Jeko-1
  CI50 growth inhibition: W (W=≥1)
  Synergy Score growth inhibition: A1 (A1=0.0001 to <1)
  Synergy Score inhibition: A1 (A1=0.0001 to <1)
Mino
  CI50 growth inhibition: W (W=≥1)
  Synergy Score growth inhibition: A1 (A1=0.0001 to <1)
  Synergy Score inhibition: A1 (A1=0.0001 to <1)
SU-DHL-10-epst
  CI50 growth inhibition: T (T=0.5 to <0.7)
  CI50 inhibition: W (W=≥1)
  Synergy Score growth inhibition: A2 (A2=1 to <3)
  Synergy Score inhibition: A2 (A2=1 to <3)
HBL-1; [5]
  CI50 growth inhibition: T (T=0.5 to <0.7)
  Synergy Score growth inhibition: A1 (A1=0.0001 to <1)
  Synergy Score inhibition: A1 (A1=0.0001 to <1)
OCI-Ly7
  Synergy Score growth inhibition: A1 (A1=0.0001 to <1)
  Synergy Score inhibition: A1 (A1=0.0001 to <1)
U-2932; [5]
  CI50 growth inhibition: W (W=≥1)
  Synergy Score growth inhibition: A1 (A1=0.0001 to <1)
  Synergy Score inhibition: A1 (A1=0.0001 to <1)
GRANTA-519
  Synergy Score growth inhibition: A1 (A1=0.0001 to <1)
  Synergy Score inhibition: A1 (A1=0.0001 to <1)
KARPAS-299
  Synergy Score growth inhibition: A1 (A1=0.0001 to <1)
  Synergy Score inhibition: A1 (A1=0.0001 to <1)
OMP-2
  Synergy Score growth inhibition: A1 (A1=0.0001 to <1)
  Synergy Score inhibition: A1 (A1=0.0001 to <1)
Farage; Farage, 72 h
  CI50 growth inhibition: T (T=0.5 to <0.7)
  CI50 inhibition: W (W=≥1)
  Synergy Score growth inhibition: A1 (A1=0.0001 to <1)
  Synergy Score inhibition: A1 (A1=0.0001 to <1)
RL
  Synergy Score growth inhibition: A1 (A1=0.0001 to <1)
  Synergy Score inhibition: A1 (A1=0.0001 to <1)
DOHH-2
  CI50 growth inhibition: W (W=≥1)
  CI50 inhibition: W (W=≥1)
  Synergy Score growth inhibition: A1 (A1=0.0001 to <1)
  Synergy Score inhibition: A1 (A1=0.0001 to <1)
WSU-NHL
  CI50 growth inhibition: U (U=0.7 to <1)
  CI50 inhibition: U (U=0.7 to <1)
  Synergy Score growth inhibition: A1 (A1=0.0001 to <1)
  Synergy Score inhibition: A1 (A1=0.0001 to <1)
KARPAS-422
  CI50 growth inhibition: T (T=0.5 to <0.7)
  CI50 inhibition: W (W=≥1)
  Synergy Score growth inhibition: A1 (A1=0.0001 to <1)
  Synergy Score inhibition: A1 (A1=0.0001 to <1)
